In patent US6537803B1, “Amino acid transporters and uses” (Oregon Health Sciences University, priority 1993, dated 2003):
Like-named read-outs stand apart in the source and are kept apart here. Values belong to the compound of their own block, whether it stands above or below them. Residues, ends and D or L forms follow the SMILES beside them.

Tests used:
Type in all cases: cell-based
human EAAT1 = target: T1, human EAAT1 (Homo sapiens, UniProt P43003); assay: inhibition of [3H]-L-glutamate uptake in COS-7 cells expressing EAAT1; conditions: for inhibition of glutamate uptake (in words), EAAT1: COS cell culture
T1 construct: expressed in transfected cells; host or cells: COS-7 cells, pCMV5 construct, DEAE-dextran transient transfection
T1 sequence (P43003 whole entry): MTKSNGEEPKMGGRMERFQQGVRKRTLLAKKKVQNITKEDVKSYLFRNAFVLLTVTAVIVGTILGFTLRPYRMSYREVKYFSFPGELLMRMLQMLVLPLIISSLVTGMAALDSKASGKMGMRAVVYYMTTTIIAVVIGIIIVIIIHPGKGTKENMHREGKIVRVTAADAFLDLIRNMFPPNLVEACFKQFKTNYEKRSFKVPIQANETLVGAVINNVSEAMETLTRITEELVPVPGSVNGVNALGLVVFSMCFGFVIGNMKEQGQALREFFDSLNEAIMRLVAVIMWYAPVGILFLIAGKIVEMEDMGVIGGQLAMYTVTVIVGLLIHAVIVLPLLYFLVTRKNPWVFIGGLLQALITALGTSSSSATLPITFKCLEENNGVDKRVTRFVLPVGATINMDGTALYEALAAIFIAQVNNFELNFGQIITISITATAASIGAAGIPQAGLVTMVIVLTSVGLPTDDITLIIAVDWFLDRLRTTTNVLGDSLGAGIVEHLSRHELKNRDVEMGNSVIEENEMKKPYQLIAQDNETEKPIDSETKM
From the text: (§1) DNA fragments comprising the coding sequences of the novel glutamate transporter genes of the invention were excised from the POTV constructs described in Example 3 and subcloned into the mammalian expression plasmid pCMV5 (Anderson et al., 1989, J. Biol. Chem. 264: 8222-8229). These mammalian expression constructs were used for transient expression assays of glutamate transporter protein function after transfection of each of these constructs into COS-7 cells (Gluzman, 1981, Cell 23: 175-182).
(§2) Each of the pCMV5 constructs corresponding to EAAT1, EAAT2 and EAAT3 were introduced into COS-7 cells by DEAE-dextran facilitated transfection (see Sambrook et al., ibid.). Two day following transfection, the transfected cells were washed three times in phosphate-buffered saline (PBS) and then incubated with a mixture of radiolabeled amino acid ([^3H]-L-glutamate or [^3H]-D-aspartate; Dupont-NEN) and non-radiolabeled amino acid for 10 min. After incubation, the cells were washed three times with ice-cold PBS, solubilized with a solution of 0.1% sodium dodecyl sulfate (SDS) and the amount of radioactivity associated with the cells determined using standard liquid scintillation counting methods.
(§3) COS-7 cell cultures transformed with pCMVS-human glutamate transporter constructs as described in Example 4 were used to characterize the pharmacological properties of each of these transporter proteins relative to a variety of known glutamate transporter inhibitors. These assays were performed essentially as described in Example 4, with the exception that varying amounts of each of a number of known inhibitor compounds were included in the incubations.
(§4) In these experiments, uptake of 1 μM of […] was determined in the presence of the indicated amounts of each of the inhibitors.

human EAAT3 = target: T2, human EAAT3 (Homo sapiens, UniProt P43005); assay: inhibition of [3H]-L-glutamate uptake in COS-7 cells expressing EAAT3; conditions: for inhibition of glutamate uptake (in words), EAAT3: COS cell culture
T2 construct: isolation of Clone GT11B containing a full-length open reading frame encoding EAAT3; expressed in transfected cells; host or cells: COS-7 cells, pCMV5 construct, DEAE-dextran transient transfection
T2 sequence (P43005 1-524): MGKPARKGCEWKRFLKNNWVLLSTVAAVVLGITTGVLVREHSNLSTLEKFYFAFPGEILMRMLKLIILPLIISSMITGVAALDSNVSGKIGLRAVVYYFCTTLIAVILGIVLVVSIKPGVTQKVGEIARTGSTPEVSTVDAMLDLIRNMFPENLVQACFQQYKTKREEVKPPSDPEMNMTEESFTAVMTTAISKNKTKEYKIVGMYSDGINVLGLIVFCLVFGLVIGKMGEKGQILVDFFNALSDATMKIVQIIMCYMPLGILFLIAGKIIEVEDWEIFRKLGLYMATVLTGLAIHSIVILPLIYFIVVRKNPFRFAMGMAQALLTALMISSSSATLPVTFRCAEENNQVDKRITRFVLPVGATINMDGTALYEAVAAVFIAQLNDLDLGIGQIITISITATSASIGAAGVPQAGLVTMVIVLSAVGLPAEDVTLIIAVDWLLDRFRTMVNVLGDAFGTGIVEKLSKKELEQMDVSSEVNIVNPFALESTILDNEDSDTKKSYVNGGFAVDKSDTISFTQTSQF
From the text: as §1, §2, §3, §4

human EAAT2 = target: T3, human EAAT2 (Homo sapiens, UniProt P43004); assay: inhibition of [3H]-L-glutamate uptake in COS-7 cells expressing EAAT2; conditions: for inhibition of glutamate uptake (in words), EAAT2: COS cell culture
T3 construct: expressed in transfected cells; host or cells: COS-7 cells, pCMV5 construct, DEAE-dextran transient transfection
T3 sequence (P43004 whole entry): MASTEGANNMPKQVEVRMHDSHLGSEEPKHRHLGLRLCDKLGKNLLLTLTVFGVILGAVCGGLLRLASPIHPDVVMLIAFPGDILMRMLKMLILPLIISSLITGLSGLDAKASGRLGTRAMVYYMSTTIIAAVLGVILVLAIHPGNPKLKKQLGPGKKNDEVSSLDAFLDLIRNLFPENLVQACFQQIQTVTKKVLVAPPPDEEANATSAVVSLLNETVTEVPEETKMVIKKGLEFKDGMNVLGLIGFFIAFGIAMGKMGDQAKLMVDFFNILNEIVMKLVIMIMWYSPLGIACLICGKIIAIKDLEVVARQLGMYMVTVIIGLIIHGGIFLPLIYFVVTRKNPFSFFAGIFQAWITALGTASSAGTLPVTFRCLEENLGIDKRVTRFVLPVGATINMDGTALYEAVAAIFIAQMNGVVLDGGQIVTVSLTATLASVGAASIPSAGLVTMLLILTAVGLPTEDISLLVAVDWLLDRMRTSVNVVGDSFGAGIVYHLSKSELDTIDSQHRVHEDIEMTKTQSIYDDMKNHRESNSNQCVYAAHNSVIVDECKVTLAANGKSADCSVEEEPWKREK
From the text: as §1, §2, §3, §4

[1] = target: T4, human ASCT1 neutral amino acid transporter (Homo sapiens, UniProt P43007); assay: amino acid-induced inward current in voltage-clamped ASCT1-injected Xenopus oocytes; conditions: for Imax (maximal current): L-stereoisomer, current normalized to the maximum response obtained with L-alanine, mean ± standard error
T4 construct: expressed in transfected cells; host or cells: Xenopus laevis oocytes injected with in vitro transcribed RNA (pOTV vector)
T4 sequence (P43007 1-532): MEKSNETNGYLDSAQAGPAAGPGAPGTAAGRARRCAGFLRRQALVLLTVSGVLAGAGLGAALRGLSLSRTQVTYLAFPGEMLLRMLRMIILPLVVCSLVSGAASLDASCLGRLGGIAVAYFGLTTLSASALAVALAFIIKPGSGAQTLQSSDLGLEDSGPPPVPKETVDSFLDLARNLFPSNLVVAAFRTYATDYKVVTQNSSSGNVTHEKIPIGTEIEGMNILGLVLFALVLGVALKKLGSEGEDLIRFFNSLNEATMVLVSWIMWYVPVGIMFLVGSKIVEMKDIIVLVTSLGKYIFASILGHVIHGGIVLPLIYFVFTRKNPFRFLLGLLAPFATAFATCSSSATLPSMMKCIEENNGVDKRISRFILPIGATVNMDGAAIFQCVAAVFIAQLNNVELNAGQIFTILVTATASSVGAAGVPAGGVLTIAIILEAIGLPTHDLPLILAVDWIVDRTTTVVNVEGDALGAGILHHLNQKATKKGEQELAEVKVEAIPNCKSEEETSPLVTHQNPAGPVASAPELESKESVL
From the text: (§5) Following the PCR, the product of the amplification reaction was purified using standard techniques (Saiki et al., 1988, Science 239: 487-491). The DNA then digested with the restriction enzymes KpnI and XbaI and then cloned into the polylinker of an oocyte transcription vector (POTV; see Wang el al., 1991, Nature 352: 729-731) that had been digested with KpnI and XbaI. Synthetic RNA was then transcribed in vitro from this clone using the method of Kavanaugh et al. (1992, J. Biol. Chem. 267: 22007-22009) employing bacteriophage T7 RNA polymerase (New England Biolabs, Beverly, Mass.). 20-50 nL of ASCT1 RNA (at a concentration of about 400 μg/mL) was injected into defolliculated stage V-VI Xenopus oocytes excised from female Xenopus laevis anesthetized by immersion in 3-aminobenzoic acid for 60 min. Excised oocytes were treated with collagenase II (Sigma Chemical Co., St. Louis, Mo.) in calcium-free Barth's saline solution [comprising 88 mM NaCl, 1 mM KCl, 2.4 mM NaHCO3, 0.82 mM MgSO4, 7.5 mM Tris-HCl (pH 7.6), 50 U/mL Nystatin (Sigma) and 0.1 mg/mL gentamycin (Sigma)] for 60 min., and then incubated overnight at 15° C. in 50% Leibowitz's L-15 media (Grand Island Biological Co. (GIBCO), Long Island, N.Y.). After overnight incubation the oocytes were mechanically defolliculated and then were injected with ASCT-1 RNA and incubated at 19° C. for 48 h (see Kim el al., 1991, Nature 352: 725-728 for further details of Xenopus oocyte preparation and microinjection).
(§6) Amino acid transport in such oocytes was assayed using [^3H] alanine, [^3H] serine or [^35S] cysteine (obtained from New England Nuclear, Boston, Mass.). Briefly, microinjected oocytes were […] at −60 mV using a Dagan TEV-200 clamp amplifier with an Axon Instruments (Foster City, Calif.) TL-1 A/D interface controlled by pCLAMP software (Axon Instruments) (see Kavanaugh et al., 1992, J. Biol. Chem. 267: 22007-22009 for a detailed review of this methodology) and continuously superfused with ND-96 buffer (consisting of 96 mM NaCl/2 mM KCl/1.8 mM CaCl2/1 mM MgCl2/5 mM HEPES, pH 7.5). For transport measurements, this solution was changed to a solution containing varying concentrations of the radiolabeled amino acids in ND-96 buffer.
More detailed analyses of ithe kinetics of amino acid influx were performed by least squares linear regression analysis of induced inward current ([I]) plotted as a function of substrate amino acid concentration ([S]), using the equation shown in the legend of Table II.

[2] = target: T4, human ASCT1 neutral amino acid transporter; assay: radiolabeled amino acid uptake in ASCT1 RNA-injected Xenopus oocytes; conditions: competitor 10 mM; [3H] alanine 100 μM
From the text: as §5, §6

[3] = read-out: Ki, glutamate uptake inhibition constant, EAAT1
[4] = read-out: Ki, glutamate uptake inhibition constant, EAAT3
[5] = read-out: Ki, glutamate uptake inhibition constant, EAAT2
[6] = much higher concentrations (about 1 mM)

SMILES: N[C@H](C(=O)O)[C@H](O)C(=O)O [THA, L-threo-β-hydroxyaspartate]
- Ki (human EAAT1; [3]): 0.032 ± 0.008 mM
- Ki (human EAAT3; [4]): 0.025 ± 0.005 mM
- Ki (human EAAT2; [5]): 19 ± 6 µM

SMILES: NCC(=O)O [glycine]
- effect on membrane current of ASCT1-injected oocytes [1, 6]: had no effect

SMILES: CN[C@H](CC(=O)O)C(=O)O [N-methyl-D-aspartate]
- inhibition of glutamate uptake (in words), EAAT1 (human EAAT1): ineffective
- inhibition of glutamate uptake (in words), EAAT3 (human EAAT3): ineffective
- inhibition of glutamate uptake (in words), EAAT2 (human EAAT2): ineffective

SMILES: NC(CCCC(=O)O)C(=O)O (stereo not drawn) [α-aminoadipate]
- inhibition of glutamate uptake (in words), EAAT1 (human EAAT1): only low potency
- inhibition of glutamate uptake (in words), EAAT3 (human EAAT3): only low potency
- inhibition of glutamate uptake (in words), EAAT2 (human EAAT2): only low potency

SMILES: N[C@@H](COS(=O)(=O)O)C(=O)O [SOS, L-serine-O-sulfate]
- Ki (human EAAT1): 0.107 ± 0.008 mM
- Ki (human EAAT3): 0.15 ± 0.052 mM
- Ki (human EAAT2): 1160 ± 275 µM

SMILES: NCCCC[C@H](N)C(=O)O [L-lysine]
- effect on membrane current of ASCT1-injected oocytes [1, 6]: had no effect

SMILES: C=C(C)[C@H]1CN[C@H](C(=O)O)[C@H]1CC(=O)O [KAI, kainate]
- Ki (human EAAT1; uptake of 1 μM [3H]-L-glutamate, bound given in mM, read-out: Ki, glutamate uptake inhibition constant, EAAT1): > 1 mM
- Ki (human EAAT3; uptake of 1 μM [3H]-L-glutamate, bound given in mM, read-out: Ki, glutamate uptake inhibition constant, EAAT3): > 1 mM
- Ki (human EAAT2; uptake of 1 μM [3H]-L-glutamate, [S] << Km, Ki does not differ significantly from measured IC50, read-out: Ki, glutamate uptake inhibition constant, EAAT2): 59 ± 18 µM

SMILES: CC(=O)N[C@@H](CC(=O)O)C(=O)N[C@@H](CCC(=O)O)C(=O)O [N-acetyl aspartylglutamate] (Ac-Asp-Glu-OH)
- inhibition of glutamate uptake (in words), EAAT1 (human EAAT1): ineffective
- inhibition of glutamate uptake (in words), EAAT3 (human EAAT3): ineffective
- inhibition of glutamate uptake (in words), EAAT2 (human EAAT2): ineffective

SMILES: N=C(N)NCCC[C@H](N)C(=O)O [arginine]
- effect on membrane current of ASCT1-injected oocytes [1, 6]: had no effect

Other lines, results leading:

- Ki (human EAAT1; [3]): 0.369 ± 0.07 mM
- Ki (human EAAT3; [4]): 0.133 ± 0.034 mM
- Ki (human EAAT2; [5]): 184 ± 27 µM
SMILES: N[C@@H](CC(=O)NO)C(=O)O [L-aspartate-β-hydroxymate]

- Imax (maximal current) [1]: 1.4 ± 0.03
SMILES: C[C@@H](O)[C@H](N)C(=O)O [Threonine]

- Imax (maximal current) [1]: 0.6 ± 0.11
SMILES: CC(C)[C@H](N)C(=O)O [Valine]

- effect on membrane current of ASCT1-injected oocytes ([1]; 1 mM): had no effect
- effect on the rate of uptake of [3H] alanine (competition) [2]: had no effect
SMILES: CNC(C)(C)C(=O)O [MAIB, 2-methylaminoisobutyric acid]

- Ki (human EAAT1; [3]): 0.014 ± 0.007 mM
- Ki (human EAAT3; [4]): 0.017 ± 0.002 mM
- Ki (human EAAT2; [5]): 6 ± 1 µM
SMILES: N[C@@H](CS(=O)O)C(=O)O [L-cysteine sulfinic acid]

- effect on membrane current of ASCT1-injected oocytes [1, 6]: had no effect
SMILES: O=C(O)[C@@H]1CCCN1 [proline]
